biological target: mTOR/GbL/Raptor (mTORC1) (Homo sapiens, UniProt P42345); experiment: mTOR/GbL/Raptor (mTORC1) ELISA assay, phosphorylation of 4E-BP1; format: biochemical; details: 0.2 nM mTORC1, 10 μM ATP, 50 nM NHis-tagged 4E-BP1; read-out: Activity in mTOR/GbL/Raptor ELISA Assay
Method: mTOR/GbL/Raptor (mTORC1) ELISA Assay
The measurement of mTORC1 enzyme activity was performed in an ELISA assay format following the phosphorylation of 4E-BP1 protein. All experiments were performed in the 384-well format. Generally, 0.5 μL DMSO containing varying concentrations of the test compound was mixed with 15 μL enzyme solution. Kinase reactions were initiated with the addition of 15 μL of substrates-containing solution. The assay conditions were as follows; 0.2 nM mTORC1, 10 μM ATP and 50 nM NHis-tagged 4E-BP1 in 20 mM Hepes, pH 7.2, 1 mM DTT, 50 mM NaCl, 10 mM MnCl2, 0.02 mg/mL BSA, 0.01% CHAPS, 50 mM β-glycerophosphate. Following an incubation of 120 minutes at ambient temperature, 20 μL of the reaction volume was transferred to a Ni-Chelate-coated 384-well plate. The binding step of the 4E-BP1 protein proceeded for 60 minutes, followed by washing 4 times each with 50 μL of Tris-buffered saline solution (TBS). Anti-phospho-4E-BP1 rabbit-IgG (20 μL, 1:5000) in 5% BSA-TBST (0.2% Tween-20 in TBS) was added and further incubated for 60 minutes. Incubation with a secondary HRP-tagged anti-IgG was similarly performed after washing off the primary antibody (4 washes of 50 μL). Following the final wash step with TBST, 20 μL of SuperSignal ELISA Femto (Pierce Biotechnology) was added and the luminescence measured using an EnVision plate reader.

SMILES	IC50 [nM]
O=C(c1ccc(C(O)(O)C(F)(F)F)cc1)N1CCOc2ccc(-c3ccc(-c4ncc[nH]4)cc3)cc2C1 [2,2,2-trifluoro-1-[4-({7-[4-(1H-imidazol-2-yl)phenyl]-2,3-dihydro-1,4-benzoxazepin-4(5H)-yl}carbonyl)phenyl]ethane-1,1-diol]	3
CCc1c(C(=O)N2CCOc3ccc(-c4ccc(NC(=O)N(C)C)cc4)cc3C2)ccc(S(C)(=O)=O)c1F [3-[4-(4-{[2-ethyl-3-fluoro-4-(methylsulfonyl)phenyl]carbonyl}-2,3,4,5-tetrahydro-1,4-benzoxazepin-7-yl)phenyl]-1,1-dimethylurea]	14.4
CCc1c(C(=O)N2CCOc3ccc(-c4ccc(C(=O)NC)c(F)c4)cc3C2)ccc(S(C)(=O)=O)c1F [4-(4-{[2-ethyl-3-fluoro-4-(methylsulfonyl)phenyl]carbonyl}-2,3,4,5-tetrahydro-1,4-benzoxazepin-7-yl)-2-fluoro-N-methylbenzamide]	11.9
Cc1nc2ccc(-c3ccc4c(c3)CN(C(=O)c3ccc5c(c3)CCS5(=O)=O)CCO4)cc2[nH]1 [4-[(1,1-dioxido-2,3-dihydro-1-benzothien-5-yl)carbonyl]-7-(2-methyl-1H-benzimidazol-6-yl)-2,3,4,5-tetrahydro-1,4-benzoxazepine]	4.8
Cc1nc2ccc(-c3ccc4c(c3)CN(C(=O)c3cc5nc(C)sc5n3C)CCO4)cc2[nH]1 [4-[(2,4-dimethyl-4H-pyrrolo[3,2-d][1,3]thiazol-5-yl)carbonyl]-7-(2-methyl-1H-benzimidazol-6-yl)-2,3,4,5-tetrahydro-1,4-benzoxazepine]	17.2
CCn1c(C(=O)N2CCOc3ccc(-c4ccc5nc(C)[nH]c5c4)cc3C2)c(Cl)c2ccccc21 [4-[(3-chloro-1-ethyl-1H-indol-2-yl)carbonyl]-7-(2-methyl-1H-benzimidazol-6-yl)-2,3,4,5-tetrahydro-1,4-benzoxazepine]	9.5
COc1ccc(OC)c(S(=O)(=O)c2ccc(C(=O)N3CCOc4ccc(-c5ccc6nc(C)[nH]c6c5)cc4C3)cc2)c1 [4-[(4-{[2,5-bis(methyloxy)phenyl]sulfonyl}phenyl)carbonyl]-7-(2-methyl-1H-benzimidazol-6-yl)-2,3,4,5-tetrahydro-1,4-benzoxazepine]	3.2
CCc1c(C(=O)N2CCOc3ccc(-c4ccc(-c5nc6ccc(C)cc6[nH]5)cc4)cc3C2)ccc(S(C)(=O)=O)c1F [4-{[2-ethyl-3-fluoro-4-(methylsulfonyl)phenyl]carbonyl}-7-[4-(6-methyl-1H-benzimidazol-2-yl)phenyl]-2,3,4,5-tetrahydro-1,4-benzoxazepine]	6
CC(C)NS(=O)(=O)c1ccc(C(=O)N2CCOc3ccc(-c4ccc5nc[nH]c5c4)cc3C2)c(Br)c1 [4-{[7-(1H-benzimidazol-6-yl)-2,3-dihydro-1,4-benzoxazepin-4(5H)-yl]carbonyl}-3-bromo-N-(1-methylethyl)benzenesulfonamide]	5.6
Nc1ccc(-c2ccc3c(c2)CN(C(=O)c2ccc(S(N)(=O)=O)cc2)CCO3)cn1 [4-{[7-(6-aminopyridin-3-yl)-2,3-dihydro-1,4-benzoxazepin-4(5H)-yl]carbonyl}benzenesulfonamide]	6.6
Cc1ccc(C(=O)N2CCOc3ccc(-c4ccc5nc[nH]c5c4)cc3C2)c(C)c1 [7-(1H-benzimidazol-6-yl)-4-[(2,4-dimethylphenyl)carbonyl]-2,3,4,5-tetrahydro-1,4-benzoxazepine]	6.4
O=C(c1ccc(-c2csnn2)cc1)N1CCOc2ccc(-c3ccc4cn[nH]c4c3)cc2C1 [7-(1H-indazol-6-yl)-4-{[4-(1,2,3-thiadiazol-4-yl)phenyl]carbonyl}-2,3,4,5-tetrahydro-1,4-benzoxazepine]	6.3
Cc1nc2ccc(-c3ccc4c(c3)CN(C(=O)c3ccc(S(=O)(=O)N5CCN(C)CC5)cc3)CCO4)cc2[nH]1 [7-(2-methyl-1H-benzimidazol-6-yl)-4-({4-[(4-methylpiperazin-1-yl)sulfonyl]phenyl}carbonyl)-2,3,4,5-tetrahydro-1,4-benzoxazepine]	8.6
Cc1nc2ccc(-c3ccc4c(c3)CN(C(=O)c3cc(S(=O)(=O)N5CCCC5)cn3C)CCO4)cc2[nH]1 [7-(2-methyl-1H-benzimidazol-6-yl)-4-{[1-methyl-4-(pyrrolidin-1-ylsulfonyl)-1H-pyrrol-2-yl]carbonyl}-2,3,4,5-tetrahydro-1,4-benzoxazepine]	7.1

Results, then the molecule that gave them:

IC50 [nM]	SMILES
9.9	CCc1c(C(=O)N2CCOc3ccc(-c4ccc(C(=O)NCC5CNC5)cc4)cc3C2)ccc(S(C)(=O)=O)c1F [N-(azetidin-3-ylmethyl)-4-(4-{[2-ethyl-3-fluoro-4-(methylsulfonyl)phenyl]carbonyl}-2,3,4,5-tetrahydro-1,4-benzoxazepin-7-yl)benzamide]
5.3	CCc1c(C(=O)N2CCOc3ccc(-c4cnc(NCCNC)s4)cc3C2)ccc(S(C)(=O)=O)c1F [N-[5-(4-{[2-ethyl-3-fluoro-4-(methylsulfonyl)phenyl]carbonyl}-2,3,4,5-tetrahydro-1,4-benzoxazepin-7-yl)-1,3-thiazol-2-yl]-N′-methylethane-1,2-diamine]

same assay, conditions: 0.2 nM mTORC1, 10 μM ATP, 50 nM NHis-tagged 4E-BP1; read-out: activity in mTOR/GbL/Raptor (mTORC1) ELISA assay, activity bands by Table 1 compound number

IC50 [nM]	SMILES
≤ 10	CCS(=O)(=O)c1ccc(C(=O)N2CCOc3ccc(-c4ccc(N)nc4)cc3C2)c(C)c1F [Example 566, 5-(4-{[4-(ethylsulfonyl)-3-fluoro-2-methylphenyl]carbonyl}-2,3,4,5-tetrahydro-1,4-benzoxazepin-7-yl)pyridin-2-amine]
10 to 100	O=C(c1ccc(C(=O)C(F)(F)F)cc1)N1CCOc2ccc(-c3cccnc3)cc2C1 [Example 884, 2,2,2-trifluoro-1-{4-[(7-pyridin-3-yl-2,3-dihydro-1,4-benzoxazepin-4(5H)-yl)carbonyl]phenyl}ethanone]
10 to 100	COc1ccc(-c2ccc3c(c2)CN(C(=O)c2ccc(S(N)(=O)=O)cc2)CCO3)cn1 [Example 885, 4-({7-[6-(methyloxy)pyridin-3-yl]-2,3-dihydro-1,4-benzoxazepin-4(5H)-yl}carbonyl)benzenesulfonamide]
100 to 500	COc1ccc(-c2ccc3c(c2)CN(C(=O)c2ccc(S(C)(=O)=O)cc2)CCO3)cn1 [Example 886, 7-[6-(methyloxy)pyridin-3-yl]-4-{[4-(methylsulfonyl)phenyl]carbonyl}-2,3,4,5-tetrahydro-1,4-benzoxazepine]
10 to 100	COc1ccc(-c2ccc3c(c2)CN(C(=O)c2ccc(C(=O)C(F)(F)F)cc2)CCO3)cn1 [Example 887, 2,2,2-trifluoro-1-[4-({7-[6-(methyloxy)pyridin-3-yl]-2,3-dihydro-1,4-benzoxazepin-4(5H)-yl}carbonyl)phenyl]ethanone]
10 to 100	CS(=O)(=O)c1ccc(C(=O)N2CCOc3ccc(-c4ccc(N)nc4)cc3C2)cc1 [Example 888, 5-(4-{[4-(methylsulfonyl)phenyl]carbonyl}-2,3,4,5-tetrahydro-1,4-benzoxazepin-7-yl)pyridin-2-amine]
